According to patent US8445674B2, “Heterocyclyl compounds” (Hoffmann-La Roche Inc, priority 2009, dated 2013):

molecular target: T1, human chemokine receptor 2 isoform B (Homo sapiens, UniProt P41597); assay: Calcium mobilization assay (FLIPR, antagonist activity against MCP-1); type: cell-based; conditions: Ca mobilisation assay, CHOK1-CCR2B-A5 cells, inhibition of calcium increase induced by 20 nM MCP-1
T1 construct: host or cells: CHOK1-CCR2B-A5 cells (CHO-K1)
T1 sequence (P41597 1-360 isoform P41597-2): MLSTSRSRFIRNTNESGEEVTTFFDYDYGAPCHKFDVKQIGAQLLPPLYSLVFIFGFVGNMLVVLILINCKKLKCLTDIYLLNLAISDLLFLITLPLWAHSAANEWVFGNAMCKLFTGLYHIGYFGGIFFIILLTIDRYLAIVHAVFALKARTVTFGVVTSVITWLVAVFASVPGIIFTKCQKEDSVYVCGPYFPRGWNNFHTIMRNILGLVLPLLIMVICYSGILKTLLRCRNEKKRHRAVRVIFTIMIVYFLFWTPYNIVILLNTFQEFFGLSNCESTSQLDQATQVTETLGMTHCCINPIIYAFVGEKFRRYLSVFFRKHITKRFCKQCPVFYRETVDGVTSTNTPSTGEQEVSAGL
Outline: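 CHOK1 cells stably overexpressing human CCR2B, loaded with 4 μM Fluo-4 for 2 h at 30° C, compounds added and agonist signal read by FLIPR for 80 s. After 20-30 min at 30° C, 20 nM MCP-1 was added and fluorescence read again. IC50 is 50% inhibition of specific calcium increase (max minus basal).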

Row | Compound | IC50 [µM]
1 | O=C(/C=C/c1ccc(Cl)c(Cl)c1)N1CCC(=O)N(CC(=O)N2CCC3(CCCO3)CC2)CC1 [Example 98, 1-[(E)-3-(3,4-Dichloro-phenyl)-acryloyl]-4-[2-(1-oxa-8-aza-spiro[4.5]dec-8-yl)-2-oxo-ethyl]-[1,4]diazepan-5-one] | 1.7
2 | CC1(CO)CCN(C(=O)CN2CCN(C(=O)/C=C/c3ccc(Cl)c(Cl)c3)CCC2=O)CC1 [Example 99, 1-[(E)-3-(3,4-Dichloro-phenyl)-acryloyl]-4-[2-(4-hydroxymethyl-4-methyl-piperidin-1-yl)-2-oxo-ethyl]-[1,4]diazepan-5-one] | 4.96
3 | C[C@@H]1CN(CCC(=O)N2CCCCC2)C(=O)CCN1C(=O)/C=C/c1cccc(Cl)c1 [Example 101, (R)-1-[(E)-3-(3-Chloro-phenyl)-acryloyl]-2-methyl-4-(3-oxo-3-piperidin-1-yl-propyl)-[1,4]diazepan-5-one] | 2.48
4 | C[C@H]1C[C@H](O)CN(C(=O)CCN2C[C@@H](C)N(C(=O)/C=C/c3cccc(Cl)c3)CCC2=O)C1 [Example 103, (R)-1-[(E)-3-(3-Chloro-phenyl)-acryloyl]-4-[3-((3S,5S)-3-hydroxy-5-methyl-piperidin-1-yl)-3-oxo-propyl]-2-methyl-[1,4]diazepan-5-one] | 1.29
5 | C[C@H]1C(=O)N(CCCC(=O)N2CCC(C)(O)CC2)CCN1C(=O)Nc1cccc(Cl)c1 [Example 105, (S)-4-[4-(4-Hydroxy-4-methyl-piperidin-1-yl)-4-oxo-butyl]-2-methyl-3-oxo-piperazine-1-carboxylic acid (3-chloro-phenyl)-amide] | 3.41
6 | C[C@H]1C(=O)N(CCCC(=O)N2CCC(C(F)(F)F)CC2)CCN1C(=O)Nc1cccc(Cl)c1 [Example 106, (S)-2-Methyl-3-oxo-4-[4-oxo-4-(4-trifluoromethyl-piperidin-1-yl)-butyl]-piperazine-1-carboxylic acid (3-chloro-phenyl)-amide] | 3.13
7 | C[C@H]1C(=O)N(CCCC(=O)N2CCC3(CC2)CNC(=O)O3)CCN1C(=O)Nc1cccc(Cl)c1 [Example 107, (S)-2-Methyl-3-oxo-4-[4-oxo-4-(2-oxo-1-oxa-3,8-diaza-spiro[4.5]dec-8-yl)-butyl]-piperazine-1-carboxylic acid (3-chloro-phenyl)-amide] | 4.87
8 | C[C@H]1C(=O)N(CCCC(=O)N2CCC3(CCCO3)CC2)CCN1C(=O)Nc1cccc(Cl)c1 [Example 108, (S)-2-Methyl-4-[4-(1-oxa-8-aza-spiro[4.5]dec-8-yl)-4-oxo-butyl]-3-oxo-piperazine-1-carboxylic acid (3-chloro-phenyl)-amide] | 4.07
9 | C[C@H]1C(=O)N(CCCC(=O)N2CCC(CO)CC2)CCN1C(=O)Nc1cccc(Cl)c1 [Example 109, (S)-4-[4-(4-Hydroxymethyl-piperidin-1-yl)-4-oxo-butyl]-2-methyl-3-oxo-piperazine-1-carboxylic acid (3-chloro-phenyl)-amide] | 4.65
10 | C[C@H]1CCN(C(=O)CCCN2CCN(C(=O)Nc3cccc(Cl)c3)[C@@H](C)C2=O)C[C@H]1O [Example 111, (S)-4-[4-((3S,4S)-3-Hydroxy-4-methyl-piperidin-1-yl)-4-oxo-butyl]-2-methyl-3-oxo-piperazine-1-carboxylic acid (3-chloro-phenyl)-amide] | 0.893
11 | O=C1CCN(C(=O)Nc2cccc(Cl)c2)CCN1CCCC(=O)N1CCC2(CC2)[C@H](O)C1 [Example 116, 4-[4-((S)-4-Hydroxy-6-aza-spiro[2.5]oct-6-yl)-4-oxo-butyl]-5-oxo-[1,4]diazepane-1-carboxylic acid (3-chloro-phenyl)-amide] | 1.29
12 | O=C1CCN(C(=O)Nc2ccc(Cl)c(C(F)(F)F)c2)CCN1CCCC(=O)N1CCC2(CC2)[C@H](O)C1 [Example 118, 4-[4-((S)-4-Hydroxy-6-aza-spiro[2.5]oct-6-yl)-4-oxo-butyl]-5-oxo-[1,4] diazepane-1-carboxylic acid (4-chloro-3-trifluoromethyl-phenyl)-amide] | 0.0517
13 | C[C@H]1C(=O)N(CCCC(=O)N2CCC3(CC3)[C@H](O)C2)C(C(N)=O)CN1C(=O)Nc1ccc(Cl)c(Cl)c1 (stereo partly drawn) [Example 121, (3RS,6S)-4-[4-((S)-4-Hydroxy-6-aza-spiro[2.5]oct-6-yl)-4-oxo-butyl]-6-methyl-5-oxo-piperazine-1,3-dicarboxylic acid 3-amide 1-[(3,4-dichloro-phenyl)-amide]] | 0.011
14 | O=C1CCN(c2ccc(OC(F)(F)F)c(Cl)c2)CCN1CCCC(=O)N1CCC2(CC2)[C@H](O)C1 [Example 122, 1-(3-Chloro-4-trifluoromethoxy-phenyl)-4-[4-((S)-4-hydroxy-6-aza-spiro[2.5]oct-6-yl)-4-oxo-butyl]-[1,4]diazepan-5-one] | 0.167
15 | COC(=O)[C@H](CCC(=O)N1CCC2(CC2)[C@H](O)C1)N1CCN(c2ccc(C(F)(F)F)c(Cl)c2)CCC1=O [Example 123, (S)-2-[4-(3-Chloro-4-trifluoromethyl-phenyl)-7-oxo-[1,4]diazepan-1-yl]-5-((S)-4-hydroxy-6-aza-spiro[2.5]oct-6-yl)-5-oxo-pentanoic acid methyl ester] | 0.0631
16 | C[C@@H]1CN(CCCC(=O)N2CCC3(CC3)[C@H](O)C2)C(=O)CCN1c1ccc(Cl)c(C(F)(F)F)c1 [Example 126, (R)-1-(4-Chloro-3-trifluoromethyl-phenyl)-4-[4-((S)-4-hydroxy-6-aza-spiro[2.5]oct-6-yl)-4-oxo-butyl]-2-methyl-[1,4]diazepan-5-one] | 2.67
17 | COC(=O)[C@H](CCC(=O)N1CCC2(CC2)[C@H](O)C1)N1CC(C)N(c2ccc(C(F)(F)F)c(C(F)(F)F)c2)CCC1=O (stereo partly drawn) [Example 127, (S)-2-[(R,S)-4-(3,4-Bis-trifluoromethyl-phenyl)-3-methyl-7-oxo-[1,4]diazepan-1-yl]-5-((S)-4-hydroxy-6-aza-spiro[2.5]oct-6-yl)-5-oxo-pentanoic acid methyl ester] | 0.191

Continued by falling IC50, values first:

Row | IC50 [µM] | Compound
18 | 3.21 | O=C(/C=C/c1ccc(Cl)c(Cl)c1)N1CCC(=O)N(CC(=O)N2CCC3(CCCC3)CC2)CC1 [Example 96, 4-[2-(8-Aza-spiro[4.5]dec-8-yl)-2-oxo-ethyl]-1-[(E)-3-(3,4-dichloro-phenyl)-acryloyl]-[1,4]diazepan-5-one]
19 | 2.75 | C[C@@H]1CN(CCCC(=O)N2CCC3(CC3)[C@H](O)C2)C(=O)C=CN1c1ccc(Cl)c(C(F)(F)F)c1 [Example 125, (R)-1-(4-Chloro-3-trifluoromethyl-phenyl)-4-[4-((S)-4-hydroxy-6-aza-spiro[2.5]oct-6-yl)-4-oxo-butyl]-2-methyl-1,2,3,4-tetrahydro-[1,4]diazepin-5-one]
20 | 1.42 | C[C@H]1C[C@H](O)CN(C(=O)CCCN2CCN(C(=O)Nc3cccc(Cl)c3)[C@@H](C)C2=O)C1 [Example 113, (S)-4-[4-((3S,5S)-3-Hydroxy-5-methyl-piperidin-1-yl)-4-oxo-butyl]-2-methyl-3-oxo-piperazine-1-carboxylic acid (3-chloro-phenyl)-amide]
21 | 1.34 | C[C@H]1C(=O)N(CCCC(=O)N2CCS(=O)(=O)CC2)CCN1C(=O)Nc1cccc(Cl)c1 [Example 110, (S)-4-[4-(1,1-Dioxo-1 lambda*6*-thiomorpholin-4-yl)-4-oxo-butyl]-2-methyl-3-oxo-piperazine-1-carboxylic acid (3-chloro-phenyl)-amide]
22 | 0.152 | C[C@@H]1CN(CCC(=O)N2CCC(C)(O)CC2)C(=O)CCN1C(=O)/C=C/c1cccc(Cl)c1 [Example 102, (R)-1-[(E)-3-(3-Chloro-phenyl)-acryloyl]-4-[3-(4-hydroxy-4-methyl-piperidin-1-yl)-3-oxo-propyl]-2-methyl-[1,4]diazepan-5-one]
23 | 0.15 | O=C(/C=C/c1ccc(Cl)c(Cl)c1)N1CCC(=O)N(CC(=O)N2CCCCC2)CC1 [Example 95, 1-[(E)-3-(3,4-Dichloro-phenyl)-acryloyl]-4-(2-oxo-2-piperidin-1-yl-ethyl)-[1,4]diazepan-5-one]
24 | 0.1 | C[C@@H]1CN(CCC(=O)N2CCC3(CC3)[C@H](O)C2)C(=O)CCN1C(=O)/C=C/c1cccc(Cl)c1 [Example 104, (R)-1-[(E)-3-(3-Chloro-phenyl)-acryloyl]-4-[3-((S)-4-hydroxy-6-aza-spiro[2.5]oct-6-yl)-3-oxo-propyl]-2-methyl-[1,4]diazepan-5-one]
25 | 0.0202 | O=C1CCN(C(=O)Nc2ccc(Cl)c(Cl)c2)CCN1CCCC(=O)N1CCC2(CC2)[C@H](O)C1 [Example 117, 4-[4-((S)-4-Hydroxy-6-aza-spiro[2.5]oct-6-yl)-4-oxo-butyl]-5-oxo-[1,4]diazepane-1-carboxylic acid (3,4-dichloro-phenyl)-amide]
26 | 0.0176 | O=C1CCN(C(=O)Nc2ccc(C(F)(F)F)c(Cl)c2)CCN1CCCC(=O)N1CCC2(CC2)[C@H](O)C1 [Example 119, 4-[4-((S)-4-Hydroxy-6-aza-spiro[2.5]oct-6-yl)-4-oxo-butyl]-5-oxo-[1,4] diazepane-1-carboxylic acid (3-chloro-4-trifluoromethyl-phenyl)-amide]
27 | 0.008 | O=C(CC[C@@H](CO)N1CCN(c2ccc(C(F)(F)F)c(Cl)c2)CCC1=O)N1CCC2(CC2)[C@H](O)C1 [Example 124, 1-(3-Chloro-4-trifluoromethyl-phenyl)-4-[(S)-4-((S)-4-hydroxy-6-aza-spiro[2.5]oct-6-yl)-1-hydroxymethyl-4-oxo-butyl]-[1,4]diazepan-5-one]
